# Test results: patent US20120015957A1, “PIPERAZINYL DERIVATIVES USEFUL AS MODULATORS OF THE NEUROPEPTIDE Y2 RECEPTOR” (priority 2007, published 2012)
# Biological target: T1, NPY Y2 receptor (Homo sapiens, UniProt P49146)
# T1 construct: endogenous in cells; host or cells: KAN-Ts cells (membrane preparation)
# T1 sequence (P49146 1-381): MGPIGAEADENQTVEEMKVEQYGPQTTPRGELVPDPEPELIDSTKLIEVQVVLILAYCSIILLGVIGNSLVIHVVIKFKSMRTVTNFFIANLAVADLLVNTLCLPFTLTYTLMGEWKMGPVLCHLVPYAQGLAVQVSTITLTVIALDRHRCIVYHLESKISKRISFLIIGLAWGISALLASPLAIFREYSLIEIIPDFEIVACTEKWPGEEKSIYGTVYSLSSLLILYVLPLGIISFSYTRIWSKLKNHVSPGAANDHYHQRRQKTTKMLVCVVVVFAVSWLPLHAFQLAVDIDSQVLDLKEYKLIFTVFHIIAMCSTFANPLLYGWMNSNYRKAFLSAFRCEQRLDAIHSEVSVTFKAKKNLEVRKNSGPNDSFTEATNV
# Test: Neuropeptide Y2 radioligand binding assay ([125I]PYY, KAN-Ts cell membranes)
# Conditions: membranes of KAN-Ts cells endogenously expressing Y2 receptors; [125I]PYY 80 pM; 1 h at rt; read-out: IC50 (μM), NPY Y2 binding
# Experimental: KAN-Ts endogenously expressing Y2 receptors were used for the radioligand binding assay. Cells were grown to confluence on 150 cm^2 tissue culture plates, washed with phosphate-buffered saline (PBS), and scraped into 50 mL tubes. After centrifugation, the supernatant was aspirated, and the pellets frozen and stored at −80° C. Thawed pellets were homogenized with a polytron tissue grinder for 15 sec in 20 mM Tris-HCl, 5 mM EDTA. The homogenate was centrifuged at 800×g for 5 min and the collected supernatant was recentrifuged at 25000×g for 25 min. The resulting pellet was resuspended in binding buffer (20 mM HEPES, 120 mM NaCl, 0.22 mM KH2PO4, 1.3 mM CaCl2, 0.8 mM MgSO4). Membranes were incubated with [^125I]PYY (80 pM) in the presence or absence of test compound for 1 h at rt. The reaction was stopped by filtration through GF/C filter plates pre-soaked in 0.3% polyethylenimine and subsequently washed with Tris 50 mM, 5 mM EDTA buffer. Plates were dried for 1 h in a 55° C. oven, scintillation fluid was added and the radioactivity was counted in a Packard TopCount. Specific binding to the NPY receptor subtypes was determined by radioactivity that was bound in the presence of […] NPY. Each binding experiment was repeated three to eight times, each in duplicate. IC50 values (i.e. concentration of unlabelled peptide or antagonist required to compete for 50% of specific binding to the radioligand) were determined using the GraphPad Prism software (GraphPad Software Inc., San Diego Calif.) with a fit to a sigmoidal dose response curve. Apparent K values were as K=IC50/(1+C/KD), where C is concentration of the radioligand.
row,SMILES,IC50
1,"CCN(CC)C(=O)C(c1ccccc1)N1CCN(c2ccc(-c3cnn(C)c3)cc2F)CC1 (stereo not drawn) [Compound 195, N,N-Diethyl-2-{4-[2-fluoro-4-(1-methyl-1H-pyrazol-4-yl)-phenyl]-piperazin-1-yl}-2-phenyl-acetamide]",0.9 µM
2,"CCN(CC)C(=O)C(c1ccccc1)N1CCN(c2ccc(-c3ccc(Cl)cc3)cc2F)CC1 (stereo not drawn) [Compound 196, 2-[4-(4′-Chloro-3-fluoro-biphenyl-4-yl)-piperazin-1-yl]-N,N-diethyl-2-phenyl-acetamide]",0.92 µM
3,"CCc1noc(-c2ccc(N3CCN(C(C(=O)N(C)CC)c4ccccc4)CC3)c(F)c2)n1 (stereo not drawn) [Compound 197, N-Ethyl-2-{4-[4-(3-ethyl-[1,2,4]oxadiazol-5-yl)-2-fluoro-phenyl]-piperazin-1-yl}-N-methyl-2-phenyl-acetamide]",0.075 µM
4,"CC(=O)C(c1ccccc1)N1CCN(c2ccc(-c3nc(C(C)C)no3)cc2F)CC1 (stereo not drawn) [Compound 198, 1-{4-[2-Fluoro-4-(3-isopropyl-[1,2,4]oxadiazol-5-yl)-phenyl]-piperazin-1-yl}-1-phenyl-propan-2-one]",2.7 µM
5,"CCCCC(C(=O)N(CC)CC)N1CCN(c2ccc(-c3nc(C)no3)cc2F)CC1 (stereo not drawn) [Compound 199, 2-{4-[2-Fluoro-4-(3-methyl-[1,2,4]oxadiazol-5-yl)-phenyl]-piperazin-1-yl}-hexanoic acid diethylamide]",2.8 µM
6,"CCN(CC)C(=O)C(c1ccccc1)N1CCN(c2ccc(-c3cc(C)n[nH]3)cc2F)CC1 (stereo not drawn) [Compound 200, N,N-Diethyl-2-{4-[2-fluoro-4-(5-methyl-2H-pyrazol-3-yl)-phenyl]-piperazin-1-yl}-2-phenyl-acetamide]",0.81 µM
7,"CCN(CC)C(=O)C(c1ccccc1)N1CCN(c2ccc(-c3ccccn3)cc2F)CC1 (stereo not drawn) [Compound 201, N,N-Diethyl-2-[4-(2-fluoro-4-pyridin-2-yl-phenyl)-piperazin-1-yl]-2-phenyl-acetamide]",0.74 µM
8,"CCN(CC)C(=O)C(c1ccccc1)N1CCN(c2ccc(-c3cccnc3)cc2F)CC1 (stereo not drawn) [Compound 202, N,N-Diethyl-2-[4-(2-fluoro-4-pyridin-3-yl-phenyl)-piperazin-1-yl]-2-phenyl-acetamide]",1 µM
9,"CCN(CC)C(=O)C(c1ccccc1)N1CCN(c2ccc(-c3ccc(C)cc3)cc2F)CC1 (stereo not drawn) [Compound 204, N,N-Diethyl-2-[4-(3-fluoro-4′-methyl-biphenyl-4-yl)-piperazin-1-yl]-2-phenyl-acetamide]",0.77 µM
10,"CCN(CC)C(=O)C(c1ccccc1)N1CCN(c2ccc(-c3ccc(OC)cc3)cc2F)CC1 (stereo not drawn) [Compound 205, N,N-Diethyl-2-[4-(3-fluoro-4′-methoxy-biphenyl-4-yl)-piperazin-1-yl]-2-phenyl-acetamide]",1.9 µM
11,CCN(CC)C(=O)C(c1ccccc1)N1CCN(c2ccc(-c3cccc(C)c3)cc2F)CC1 (stereo not drawn) [Compound 206],0.48 µM
12,"CCN(CC)C(=O)C(c1ccccc1)N1CCN(c2ccc(-c3ccc(F)cc3)cc2F)CC1 (stereo not drawn) [Compound 207, 2-[4-(3,4′-Difluoro-biphenyl-4-yl)-piperazin-1-yl]-N,N-diethyl-2-phenyl-acetamide]",1.1 µM
13,"CCN(CC)C(=O)C(c1ccccc1)N1CCN(c2ccc(-c3nc(C)n[nH]3)cc2F)CC1 (stereo not drawn) [Compound 208, N,N-Diethyl-2-{4-[2-fluoro-4-(5-methyl-2H-[1,2,4]triazol-3-yl)-phenyl]-piperazin-1-yl}-2-phenyl-acetamide]",2.9 µM
14,"CCN(CC)C(=O)C(c1cc(F)ccc1Br)N1CCN(c2ccc(-c3nc(C)no3)cc2F)CC1 (stereo not drawn) [Compound 209, 2-(2-Bromo-5-fluoro-phenyl)-N,N-diethyl-2-{4-[2-fluoro-4-(3-methyl-[1,2,4]oxadiazol-5-yl)-phenyl]-piperazin-1-yl}-acetamide]",0.99 µM
15,"CCN(CC)C(=O)C(c1ccc(F)cc1)N1CCN(c2ccc(-c3nc(C)no3)cc2F)CC1 (stereo not drawn) [Compound 210, N,N-Diethyl-2-{4-[2-fluoro-4-(3-methyl-[1,2,4]oxadiazol-5-yl)-phenyl]-piperazin-1-yl}-2-(4-fluoro-phenyl)-acetamide]",0.29 µM
